# Measured values taken from patent publication US9556179B2 (BRISTOL-MYERS SQUIBB COMPANY, priority 2012, dated 2017).
# pIC50: −log10 of the molar value.
# Legend:
# [1] = target: CK1ε (Homo sapiens (Human), UniProt P49674); assay: CK1ε kinase assay (Caliper LABCHIP electrophoretic separation of fluoresceinated peptide substrate and product); format: biochemical; details: 200 pM enzyme, 50 μM ATP, 22 hours at room temperature
# Protocol: (§1) CK1ε and CK1δ Kinase Assays
# (§2) The kinase assay was performed in V-bottom 384-well plates. […] The reaction was incubated at room temperature for 22 hours and terminated by adding 45 μl of 35 mM EDTA to each sample. The reaction mixture was analyzed on the Caliper LABCHIP®3000 (Caliper, Hopkinton, Mass.) by electrophoretic separation of the unphosphorylated substrate and phosphorylated product. […] Compounds were dissolved at 10 mM in dimethylsulfoxide (DMSO) and evaluated at eleven concentrations. IC50 values were derived by non-linear regression analysis.
# [2] = target: CK1δ (Homo sapiens (Human), UniProt P48730); assay: CK1δ kinase assay (Caliper LABCHIP electrophoretic separation of fluoresceinated peptide substrate and product); format: biochemical; details: 200 pM enzyme, 50 μM ATP, 22 hours at room temperature
# Protocol: as §1, §2
# Chain of CK1δ (P48730 whole entry): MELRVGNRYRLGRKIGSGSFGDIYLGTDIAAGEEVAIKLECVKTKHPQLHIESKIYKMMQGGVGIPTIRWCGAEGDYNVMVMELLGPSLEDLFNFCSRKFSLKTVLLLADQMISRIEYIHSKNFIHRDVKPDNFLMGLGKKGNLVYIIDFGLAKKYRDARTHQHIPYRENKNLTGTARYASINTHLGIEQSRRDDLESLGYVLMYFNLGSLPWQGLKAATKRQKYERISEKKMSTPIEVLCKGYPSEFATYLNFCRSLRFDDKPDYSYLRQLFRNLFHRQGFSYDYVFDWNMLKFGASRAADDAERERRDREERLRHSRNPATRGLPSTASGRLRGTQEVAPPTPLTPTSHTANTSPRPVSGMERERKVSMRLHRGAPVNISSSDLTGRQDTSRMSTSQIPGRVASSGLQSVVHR
# Chain of CK1ε (P49674 whole entry): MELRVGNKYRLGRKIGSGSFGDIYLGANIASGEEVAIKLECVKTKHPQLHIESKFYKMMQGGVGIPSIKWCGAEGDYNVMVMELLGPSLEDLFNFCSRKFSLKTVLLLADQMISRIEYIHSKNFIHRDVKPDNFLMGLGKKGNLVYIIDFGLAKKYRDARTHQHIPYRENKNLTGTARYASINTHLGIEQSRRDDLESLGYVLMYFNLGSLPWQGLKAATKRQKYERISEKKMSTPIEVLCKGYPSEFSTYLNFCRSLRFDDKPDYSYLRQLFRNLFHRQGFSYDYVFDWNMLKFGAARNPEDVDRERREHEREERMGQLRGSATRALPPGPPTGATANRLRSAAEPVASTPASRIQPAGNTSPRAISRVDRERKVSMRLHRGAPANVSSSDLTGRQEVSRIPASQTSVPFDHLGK
Compound,pIC50 [1],pIC50 [2]
CN1CCC(n2cnc(-c3ccc(F)cc3)c2-c2ccc3nc(NC(=O)c4ccncc4)cn3n2)CC1 [Compound 2],8.61,8.60
"O=C(Nc1cn2nc(-c3c(-c4ccc(F)cc4)ncn3C3CCN(Cc4ccon4)CC3)ccc2n1)c1ccncc1 [Compound 3, N-(6-(4-(4-fluorophenyl)-1-(1-(isoxazol-3-ylmethyl)piperidin-4-yl)-1H-imidazol-5-yl)imidazo[1,2-b]pyridazin-2-yl)isonicotinamide]",9.53,9.51
"O=C(Nc1cn2nc(-c3c(-c4ccc(F)cc4)ncn3C3CCN(CCC(F)(F)F)CC3)ccc2n1)c1ccncc1 [Compound 4, N-(6-(4-(4-fluorophenyl)-1-(1-(3,3,3-trifluoropropyl)piperidin-4-yl)-1H-imidazol-5-yl)imidazo[1,2-b]pyridazin-2-yl)isonicotinamide]",8.65,9.52
"O=C(Nc1cn2nc(-c3c(-c4ccc(F)cc4)ncn3C3CCN(C(=O)c4ccon4)CC3)ccc2n1)c1ccncc1 [Compound 5, N-(6-(4-(4-fluorophenyl)-1-(1-(isoxazole-3-carbonyl)piperidin-4-yl)-1H-imidazol-5-yl)imidazo[1,2-b]pyridazin-2-yl)isonicotinamide]",8.85,9.42
"O=C(Nc1cn2nc(-c3c(-c4ccc(F)cc4)ncn3C3CCN(C(=O)CC(F)(F)F)CC3)ccc2n1)c1ccncc1 [Compound 6, N-(6-(4-(4-fluorophenyl)-1-(1-(3,3,3-trifluoropropanoyl)piperidin-4-yl)-1H-imidazol-5-yl)imidazo[1,2-b]pyridazin-2-yl)isonicotinamide]",8.93,9.58
"O=C(Nc1cn2nc(-c3c(-c4ccc(F)cc4)ncn3C3CCNCC3)ccc2n1)c1ccnc(F)c1 [Compound 9, 2-fluoro-N-(6-(4-(4-fluorophenyl)-1-(piperidin-4-yl)-1H-imidazol-5-yl)imidazo[1,2-b]pyridazin-2-yl)isonicotinamide]",9.17,9.04
"O=C(Nc1cn2nc(-c3c(-c4ccc(F)cc4)ncn3C3CCN(CCO)CC3)ccc2n1)c1ccnc(F)c1 [Compound 13, 2-fluoro-N-(6-(4-(4-fluorophenyl)-1-(1-(2-hydroxyethyl)piperidin-4-yl)-1H-imidazol-5-yl)imidazo[1,2-b]pyridazin-2-yl)isonicotinamide]",9.21,9.67
"O=C(Nc1cn2nc(-c3c(-c4ccc(F)cc4)ncn3C3CCN(C(=O)c4cnon4)CC3)ccc2n1)c1ccnc(F)c1 [Compound 14, N-(6-(1-(1-(1,2,5-oxadiazole-3-carbonyl)piperidin-4-yl)-4-(4-fluorophenyl)-1H-imidazol-5-yl)imidazo[1,2-b]pyridazin-2-yl)-2-fuoroisonicotinamide]",8.41,9.20
"O=C(Nc1cn2nc(-c3c(-c4ccc(F)cc4)ncn3C3CCN(Cc4ccc(F)cc4)CC3)ccc2n1)c1ccnc(F)c1 [Compound 15, 2-fluoro-N-(6-(1-(1-(4-fluorobenzyI)piperidin-4-yl)-4-(4-fluorophenyl)-1H-imidazol-5-yl)imidazo[1,2-b]pyridazin-2-yl)isonicotinamide]",7.85,9.67
"O=C(Nc1cn2nc(-c3c(-c4ccc(F)cc4)ncn3C3CCN(Cc4ccncc4)CC3)ccc2n1)c1ccnc(F)c1 [Compound 16, 2-fluoro-N-(6-(4-(4-fluorophenyl)-1-(1-(pyridin-4-ylmethyl)piperidin-4-yl)-1H-imidazol-5-yl)imidazo[1,2-b]pyridazin-2-yl)isonicotinamide]",8.51,9.53
"O=C(Nc1cn2nc(-c3c(-c4ccc(F)cc4)ncn3C3CCN(Cc4ncc[nH]4)CC3)ccc2n1)c1ccnc(F)c1 [Compound 18, N-(6-(1-(1-((1H-imidazol-2-yl)methyl)piperidin-4-yl)-4-(4-fluorophenyl)-1H-imidazol-5-yl)imidazo[1,2-b]pyridazin-2-yl)-2-fluoroisonicotinamide]",9.22,9.59
"O=C(Nc1cn2nc(-c3c(-c4ccc(F)cc4)ncn3C3CCN(Cc4cc[nH]n4)CC3)ccc2n1)c1ccnc(F)c1 [Compound 20, N-(6-(1-(1-((1H-pyrazol-3-yl)methyl)piperidin-4-yl)-4-(4-fluorophenyl)-1H-imidazol-5-yl)imidazo[1,2-b]pyridazin-2-yl)-2-fluoroisonicotinamide]",8.75,9.55
"O=C(Nc1cn2nc(-c3c(-c4ccc(F)cc4)ncn3C3CCN(CCN4CCOCC4)CC3)ccc2n1)c1ccnc(F)c1 [Compound 23, 2-fluoro-N-(6-(4-(4-fluorophenyl)-1-(1-(2-morpholinoethyl)piperidin-4-yl)-1H-imidazol-5-yl)imidazo[1,2-b]pyridazin-2-yl)isonicotinamide]",9.17,9.74
"O=C(Nc1cn2nc(-c3c(-c4ccc(F)cc4)ncn3C3CCN(CC4CC4)CC3)ccc2n1)c1ccnc(F)c1 [Compound 28, N-(6-(1-(1-(cyclopropylmethyl)piperidin-4-yl)-4-(4-fluorophenyl)-1H-imidazol-5-yl)imidazo[1,2-6]pyridazin-2-yl)-2-fluoroisonicotinamide]",8.90,9.68
"CC(C)CCN1CCC(n2cnc(-c3ccc(F)cc3)c2-c2ccc3nc(NC(=O)c4ccnc(F)c4)cn3n2)CC1 [Compound 32, 2-fluoro-N-(6-(4-(4-fluorophenyl)-1-(1-isopentylpiperidin-4-yl)-1H-imidazol-5-yl)imidazo[1,2-b]pyridazin-2-yl)isonicotinamide]",7.97,9.22
"O=C(Nc1cn2nc(-c3c(-c4ccc(F)cc4)ncn3C3CCN(C(=O)C4CCC4)CC3)ccc2n1)c1ccnc(F)c1 [Compound 68, N-(6-(1-(1-(cyclobutanecarbonyl)piperidin-4-yl)-4-(4-fluorophenyl)-1H-imidazol-5-yl)imidazo[1,2-b]pyridazin-2-yl)-2-fluoroisonicotinamide]",,9.71
"Cc1nc(-c2ccc(F)cc2)c(-c2ccc3nc(NC(=O)C(=O)c4ccccc4)cn3n2)n1C [Compound 317, N-(6-(4-(4-fluorophenyl)-1,2-dimethyl-1H-imidazol-5-yl)imidazo[1,2-b]pyridazin-2-yl)-2-oxo-2-phenylacetamide]",,8.92

# More lines, in order of rising pIC50 [2], values ahead:
pIC50 [1],pIC50 [2],Compound
,8.42,"O=C(Nc1cn2nc(-c3c(-c4ccc(F)cc4)nc4ccccn34)ccc2n1)C1CC1 [Compound 185, N-(6-(2-(4-fluorophenyl)imidazo[1,2-a]pyridin-3-yl)imidazo[1,2-b]pyridazin-2-yl)cyclopropanecarboxamide]"
7.66,8.67,"O=C(Nc1cn2nc(-c3c(-c4ccc(F)cc4)ncn3C3CCN(Cc4cocn4)CC3)ccc2n1)c1ccnc(F)c1 [Compound 17, 2-fluoro-N-(6-(4-(4-fluorophenyl)-1-(1-(oxazol-4-ylmethyl)piperidin-4-yl)-1H-imidazol-5-yl)imidazo[1,2-b]pyridazin-2-yl)isonicotinamide]"
8.64,9.07,"O=C(Nc1cn2nc(-c3c(-c4ccc(F)cc4)ncn3C3CCN(CCC(F)(F)F)CC3)ccc2n1)c1ccnc(F)c1 [Compound 10, 2-fluoro-N-(6-(4-(4-fluorophenyl)-1-(1-(3,3,3-trifluoropropyl)piperidin-4-yl)-1H-imidazol-5-yl)imidazo[1,2-b]pyridazin-2-yl)isonicotinamide]"
9.18,9.07,CN1CCC(n2cnc(-c3ccc(F)cc3)c2-c2ccc3nc(NC(=O)c4ccnc(F)c4)cn3n2)CC1 [Compound 11]
9.55,9.07,O=C(Nc1cn2nc(-c3c(-c4ccc(F)cc4)ncn3C3CCN(Cc4ccon4)CC3)ccc2n1)c1ccnc(F)c1 [Compound 12]
7.95,9.13,"O=C(Nc1cn2nc(-c3c(-c4ccc(F)cc4)ncn3C3CCN(CC4C[C@@H]5CC[C@H]4C5)CC3)ccc2n1)c1ccnc(F)c1 (stereo partly drawn) [Compound 31, N-(6-(1-(1-((1S,4R)-bicyclo[2.2.1]heptan-2-ylmethyl)piperidin-4-yl)-4-(4-fluorophenyl)-1H-imidazol-5-yl)imidazo[1,2-6]pyridazin-2-yl)-2-fluoroisonicotinamide]"
8.65,9.35,"CSCCCN1CCC(n2cnc(-c3ccc(F)cc3)c2-c2ccc3nc(NC(=O)c4ccnc(F)c4)cn3n2)CC1 [Compound 26, 2-fluoro-N-(6-(4-(4-fluorophenyl)-1-(1-(3-(methylthio)propyl)piperidin-4-yl)-1H-imidazol-5-yl)imidazo[1,2-b]pyridazin-2-yl)isonicotinamide]"
8.95,9.58,"Cn1ccnc1CN1CCC(n2cnc(-c3ccc(F)cc3)c2-c2ccc3nc(NC(=O)c4ccnc(F)c4)cn3n2)CC1 [Compound 27, 2-fluoro-N-(6-(4-(4-fluorophenyl)-1-(1-((1-methyl-1H-imidazol-2-yl)methyl)piperidin-4-yl)-1H-imidazol-5-yl)imidazol[1,2-b]pyridazin-2-yl)isonicotinamide]"
,9.69,"O=C(Nc1cn2nc(-c3c(-c4ccc(Cl)cc4)ncn3CC(F)F)ccc2n1)c1ccnc(F)c1 [Compound 244, N-(6-(4-(4-chlorophenyl)-1-(2,2-difluoroethyl)-1H-imidazol-5-yl)imidazo[1,2-b]pyridazin-2-yl)-2-fluoroisonicotinamide]"
8.26,9.77,Cc1nn(C)cc1CN1CCC(n2cnc(-c3ccc(F)cc3)c2-c2ccc3nc(NC(=O)c4ccnc(F)c4)cn3n2)CC1 [Compound 21]
8.89,10.00,O=C(Nc1cn2nc(-c3c(-c4ccc(F)cc4)ncn3C3CCN(Cc4c[nH]cn4)CC3)ccc2n1)c1ccnc(F)c1 [Compound 22]
